In the supplement of paper PMC10307832:

What was measured:
Experiment in all cases: relative viability (nuclei count vs DMSO), 5 days (fraction); higher = more cells survive
[1] = compound: C1=CC2=C(C=C(C(=C2N=C1)O)N=NC3=CC4=C(C=C3)C=C(C=C4)S(=O)(=O)O)S(=O)(=O)O
How it was run: (§1)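 Viability here means nuclei in treated wells divided by nuclei in vehicle wells, reported as the median across plates. Only plates with control CV below 25% and at least one doubling passed. Lung cancer cell lines in 1536-well plates were exposed to five √10-spaced library-drug doses for 5 days and counted from 4× Hoechst images in MetaXpress.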

AT-7519 = compound: O=C(NC1CCNCC1)c1n[nH]cc1NC(=O)c1c(Cl)cccc1Cl [AT-7519]
How it was run: as §1

[2] = compound: C1=CC2=C(C=C(C(=C2N=C1)O)N=NC3=CC4=C(C=C3)C=C(C=C4)S(=O)(=O)O)S(=O)(=O)O + Nc1ncn([C@H]2C[C@H](O)[C@@H](CO)O2)c(=O)n1 [Decitabine] (partner 2 µM)
How it was run: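 Relative viability was taken as the ratio of nuclei in treated wells to nuclei in vehicle wells. Lung cancer cell lines in 1536-well plates received compounds by pin tool one day after seeding, either one drug alone or a fixed anchor-drug dose plus five library-drug doses (not always all listed) in √10 steps. Nuclei were counted on 4× images after 5 days of treatment, and values are medians of duplicate plates.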

Cell Line UMC-11 has a relative viability ([1]; 0.08 µM) of 1.11, a relative viability ([1]; 0.253 µM) of 0.942 and a relative viability ([1]; 0.8 µM) of 0.925. For the same cell line, the relative viability ([1]; 2.53 µM) was 1.02, the relative viability ([1]; 8 µM) was 0.92 and the relative viability (AT-7519; 0.01 µM) was 0.951. It also gave a relative viability (AT-7519; 0.03162 µM) of 0.934, a relative viability (AT-7519; 0.3162 µM) of 0.765 and a relative viability (AT-7519; 1 µM) of 0.499. For the same cell line, the relative viability ([2]; first compound 0.08 µM) was 0.506, the relative viability ([2]; first compound 0.253 µM) was 0.644 and the relative viability ([2]; first compound 0.8 µM) was 0.734. It also gave a relative viability ([2]; first compound 2.53 µM) of 0.679 and a relative viability ([2]; first compound 8 µM) of 0.638.
